In patent US20120214862A1, “MODULATION OF FACTOR 7 EXPRESSION” (ISIS Pharmaceuticals, Inc., priority 2009, published 2012):
In the oligonucleotide strings, read from the 5' end, every base follows the letter of its sugar. An asterisk marks phosphorothioate; unmarked linkages are phosphodiester. Other units and linkages are bracketed, terminal groups are in braces. A string of capitals states the bases alone. e = 2'-O-(2-methoxyethyl) (MOE); [5mC] = 5-methylcytosine; d = 2'-deoxy (DNA)

Columns and labels:
human Factor 7 mRNA [1] = assay: Antisense inhibition of human Factor 7 mRNA in HepB3 cells, lipofectin, 50 nM, real-time RT-PCR; format: cell-based; details: HepB3 cells; for % Inhibition (human Factor 7 mRNA): 50 nM, ~24 h
Method in brief: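 Percent inhibition of Factor 7 mRNA, relative to untreated control, comes from real-time RT-PCR with RIBOGREEN normalization, using primer probe set RTS 2927 in some runs. RNA was taken roughly 24 h after lipofectin delivery of 50 nM oligonucleotide into HepB3 cells.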

human Factor 7 mRNA [2] = assay: Dose-dependent antisense inhibition of human Factor 7 in HepB3 cells, transfection with lipofectin; format: cell-based; details: HepB3, lipofectin, ~16 h
Protocol: Cells were plated at a density of 4,000 cells per well and treated with lipofectin reagent with 3.125 nM, 6.25 nM, 12.5 nM, 25 nM, 50 nM, and 100 nM concentrations of antisense oligonucleotide, as indicated in Table 3. After a treatment period of approximately 16 hours, RNA was isolated from the cells and Factor 7 mRNA levels were measured by real-time RT-PCR, as described herein. Human Factor 7 primer probe set RTS 2927 (forward sequence: […], incorporated herein as SEQ ID NO: 164; reverse sequence: […], incorporated herein as SEQ ID NO: 165; probe sequence: TGGGTGGTCTCCGCGGCCX, incorporated herein as SEQ ID NO: 166) was used to measure mRNA levels. Factor 7 mRNA levels were adjusted according to total RNA content as measured by RIBOGREEN®. Results are presented as percent inhibition of Factor 7, relative to untreated control cells.
Cells were plated at a density of 4,000 cells per well and transfected using lipofectin reagent with 6.25 nM, 12.5 nM, 25.0 nM, 50.0 nM, and 100.0 nM concentrations of antisense oligonucleotide, as indicated in Table 7. After a treatment period of approximately 16 hours, RNA was isolated from the cells and Factor 7 mRNA levels were measured by real-time RT-PCR, as described herein. Human Factor 7 primer probe set RTS 2927 was used to measure mRNA levels. Factor 7 mRNA levels were adjusted according to total RNA content as measured by RIBOGREEN®. Results are presented as percent inhibition of Factor 7, relative to untreated control cells.
Cells were plated at a density of 4,000 cells per well and transfected using lipofectin reagent with 3.125 nM, 6.25 nM, 12.5 nM, 25 nM, 50 nM, and 100 nM concentrations of antisense oligonucleotide, as specified in Table 14. After a treatment period of approximately 16 hours, RNA was isolated from the cells and Factor 7 mRNA levels were measured by quantitative real-time PCR. Human Factor 7 primer probe set RTS 2927 was used to measure mRNA levels. Factor 7 mRNA levels were adjusted according to total RNA content, as measured by RIBOGREEN®. Results are presented as percent inhibition of Factor 7, relative to untreated control cells.

[3] = Example 1, lipofectin, relative to untreated control cells
[4] = lipofectin, 50 nM antisense oligonucleotide, approximately 24 hours, primer probe set RTS 2927, relative to untreated control
[5] = gapmers targeted to nucleobases 14707 to 14732 of SEQ ID NO: 1 (Table 11)
[6] = gapmers targeted to nucleobases 11830 to 11869 of SEQ ID NO: 1 (Table 9)
[7] = gapmers (5-10-5, 3-14-3, 2-13-5 MOE) targeted to nucleobases 4868 to 4899 of SEQ ID NO: 1

407910 (antisense eA*eG*eT*e[5mC]*e[5mC]*dT*dT*dG*d[5mC]*dT*dG*d[5mC]*d[5mC]*dA*dT*e[5mC]*e[5mC]*eG*eA*eG) [compound 407910]
% Inhibition (human Factor 7 mRNA) (human Factor 7 mRNA [1]; [3]): 86% | % Inhibition of human Factor 7 mRNA levels (human Factor 7 mRNA [1]; [4]): 72% | percent inhibition of Factor 7 mRNA, 3.125 nM (human Factor 7 mRNA [2]; Example 2, 3.125 nM): 31% | percent inhibition of Factor 7 mRNA, 6.25 nM (human Factor 7 mRNA [2]; Example 2): 44% | percent inhibition of Factor 7 mRNA, 12.5 nM (human Factor 7 mRNA [2]; Example 2): 69% | percent inhibition of Factor 7 mRNA, 25.0 nM (human Factor 7 mRNA [2]; Example 2): 68% | percent inhibition of Factor 7 mRNA, 50.0 nM (human Factor 7 mRNA [2]; Example 2): 82% | percent inhibition of Factor 7 mRNA, 100.0 nM (human Factor 7 mRNA [2]; Example 2): 89%

416446 (antisense eG*eG*eT*e[5mC]*eA*d[5mC]*dT*dG*d[5mC]*dA*dG*dT*dA*d[5mC]*dT*eG*e[5mC]*eT*e[5mC]*eA) [compound 416446]
% Inhibition of human Factor 7 mRNA levels (human Factor 7 mRNA [1]; [4]): 64% | percent inhibition of Factor 7 mRNA, 6.25 nM (human Factor 7 mRNA [2]; Example 5): 25% | percent inhibition of Factor 7 mRNA, 12.5 nM (human Factor 7 mRNA [2]; Example 5): 24% | percent inhibition of Factor 7 mRNA, 25.0 nM (human Factor 7 mRNA [2]; Example 5): 50% | percent inhibition of Factor 7 mRNA, 50.0 nM (human Factor 7 mRNA [2]; Example 5): 69% | percent inhibition of Factor 7 mRNA, 100.0 nM (human Factor 7 mRNA [2]; Example 5): 64%

416477 (antisense e[5mC]*eA*eG*e[5mC]*e[5mC]*dT*dG*dA*dG*dG*d[5mC]*d[5mC]*dA*dG*d[5mC]*eA*eG*eA*eT*e[5mC]) [compound 416477]
% Inhibition of human Factor 7 mRNA levels (human Factor 7 mRNA [1]; [4]): 74% | % Inhibition of human Factor 7 mRNA levels (human Factor 7 mRNA [1]; [5]): 71% | percent inhibition of Factor 7 mRNA, 6.25 nM (human Factor 7 mRNA [2]; Example 5): 21% | percent inhibition of Factor 7 mRNA, 12.5 nM (human Factor 7 mRNA [2]; Example 5): 46% | percent inhibition of Factor 7 mRNA, 25.0 nM (human Factor 7 mRNA [2]; Example 5): 64% | percent inhibition of Factor 7 mRNA, 50.0 nM (human Factor 7 mRNA [2]; Example 5): 78% | percent inhibition of Factor 7 mRNA, 100.0 nM (human Factor 7 mRNA [2]; Example 5): 87%

416438 (antisense e[5mC]*eA*eG*eG*eA*dG*d[5mC]*d[5mC]*d[5mC]*d[5mC]*d[5mC]*dA*dT*dT*d[5mC]*eT*eG*eG*e[5mC]*eA) [compound 416438]
% Inhibition of human Factor 7 mRNA levels (human Factor 7 mRNA [1]; [4]): 63% | percent inhibition of Factor 7 mRNA, 6.25 nM (human Factor 7 mRNA [2]; Example 5): 11% | percent inhibition of Factor 7 mRNA, 12.5 nM (human Factor 7 mRNA [2]; Example 5): 33% | percent inhibition of Factor 7 mRNA, 25.0 nM (human Factor 7 mRNA [2]; Example 5): 56% | percent inhibition of Factor 7 mRNA, 50.0 nM (human Factor 7 mRNA [2]; Example 5): 75% | percent inhibition of Factor 7 mRNA, 100.0 nM (human Factor 7 mRNA [2]; Example 5): 82%

416549 (antisense eG*eA*e[5mC]*eA*eA*dT*dG*dG*dT*d[5mC]*dA*dG*dG*dG*d[5mC]*eT*eG*eG*eT*eT) [compound 416549]
% Inhibition of human Factor 7 mRNA levels (human Factor 7 mRNA [1]; [4]): 68% | % Inhibition of human Factor 7 mRNA levels (human Factor 7 mRNA [1]; [6]): 69% | percent inhibition of Factor 7 mRNA, 6.25 nM (human Factor 7 mRNA [2]; Example 5): 38% | percent inhibition of Factor 7 mRNA, 12.5 nM (human Factor 7 mRNA [2]; Example 5): 44% | percent inhibition of Factor 7 mRNA, 25.0 nM (human Factor 7 mRNA [2]; Example 5): 63% | percent inhibition of Factor 7 mRNA, 50.0 nM (human Factor 7 mRNA [2]; Example 5): 73% | percent inhibition of Factor 7 mRNA, 100.0 nM (human Factor 7 mRNA [2]; Example 5): 78%

422089 (antisense eG*eT*e[5mC]*eA*eG*dG*dG*d[5mC]*dT*dG*dG*dT*dT*dT*dT*eG*eG*eA*eG*eG) [compound 422089]
% Inhibition of human Factor 7 mRNA levels (human Factor 7 mRNA [1]; [6]): 22%

407607 (antisense eT*eG*eG*eA*eG*d[5mC]*dT*dG*dG*dT*d[5mC]*d[5mC]*dT*dT*dG*e[5mC]*eA*eG*eG*eA) [compound 407607]
% Inhibition (human Factor 7 mRNA) (human Factor 7 mRNA [1]; [3]): 76%

416464 (antisense eA*eA*e[5mC]*eA*eT*dG*dT*dA*d[5mC]*dT*d[5mC]*d[5mC]*dG*dT*dG*eA*eT*eA*eT*eT) [compound 416464]
% Inhibition of human Factor 7 mRNA levels (human Factor 7 mRNA [1]; [4]): 53%

422225 (antisense eA*eG*eG*dA*dG*d[5mC]*d[5mC]*d[5mC]*dG*dA*dG*dT*dT*d[5mC]*dT*dG*d[5mC]*eA*eG*eG) [compound 422225]
% Inhibition of human Factor 7 mRNA levels (human Factor 7 mRNA [1]; [7]): 56%

416560 (antisense eT*eA*eA*eA*eA*d[5mC]*dT*dT*dT*dA*dT*dT*dT*dA*d[5mC]*eA*eA*eG*eA*eG) [compound 416560]
% Inhibition of human Factor 7 mRNA levels (human Factor 7 mRNA [1]; [4]): 0%

422218 (antisense e[5mC]*eG*eA*dG*dT*dT*d[5mC]*dT*dG*d[5mC]*dA*dG*dG*dA*dG*d[5mC]*dG*eG*e[5mC]*e[5mC]) [compound 422218]
% Inhibition of human Factor 7 mRNA levels (human Factor 7 mRNA [1]; [7]): 70%

422219 (antisense e[5mC]*e[5mC]*eG*dA*dG*dT*dT*d[5mC]*dT*dG*d[5mC]*dA*dG*dG*dA*dG*d[5mC]*eG*eG*e[5mC]) [compound 422219]
% Inhibition of human Factor 7 mRNA levels (human Factor 7 mRNA [1]; [7]): 65%

416491 (antisense eG*eA*eG*eA*eA*dG*dG*dG*dT*dT*dG*d[5mC]*dA*dG*dG*e[5mC]*eA*eG*eG*eA) [compound 416491]
% Inhibition of human Factor 7 mRNA levels (human Factor 7 mRNA [1]; [4]): 2%

416526 (antisense eT*eG*eT*e[5mC]*e[5mC]*dA*d[5mC]*dA*dT*dG*dA*d[5mC]*d[5mC]*d[5mC]*d[5mC]*eA*e[5mC]*eA*eG*eG) [compound 416526]
% Inhibition of human Factor 7 mRNA levels (human Factor 7 mRNA [1]; [4]): 19%

422248 (antisense eG*eG*d[5mC]*dT*dG*dA*dG*dG*dA*dG*dA*d[5mC]*dA*dA*dT*eG*eG*eT*e[5mC]*eA) [compound 422248]
% Inhibition of human Factor 7 mRNA levels (human Factor 7 mRNA [1]; [6]): 60%

422172 (antisense eT*eG*eG*d[5mC]*dT*dG*dA*dG*dG*dA*dG*dA*d[5mC]*dA*dA*dT*dG*eG*eT*e[5mC]) [compound 422172]
% Inhibition of human Factor 7 mRNA levels (human Factor 7 mRNA [1]; [6]): 39%

407924 (antisense eG*eA*eT*eT*eT*dG*dG*dT*dG*d[5mC]*d[5mC]*dA*dG*dG*dA*e[5mC]*eA*eG*eT*eT) [compound 407924]
% Inhibition (human Factor 7 mRNA) (human Factor 7 mRNA [1]; [3]): 68%

416565 (antisense e[5mC]*eA*eG*eG*eA*dT*dG*d[5mC]*dT*d[5mC]*dA*dT*dG*dG*d[5mC]*eA*eG*eA*e[5mC]*eA) [compound 416565]
% Inhibition of human Factor 7 mRNA levels (human Factor 7 mRNA [1]; [4]): 0%

416476 (antisense eG*e[5mC]*eA*eG*eG*dT*dG*dG*dG*d[5mC]*dT*dT*dG*dG*d[5mC]*eT*eG*eA*eA*eG) [compound 416476]
% Inhibition of human Factor 7 mRNA levels (human Factor 7 mRNA [1]; [4]): 58%

422201 (antisense eG*e[5mC]*e[5mC]*dT*dG*dA*dG*dG*d[5mC]*d[5mC]*dA*dG*d[5mC]*dA*dG*dA*dT*e[5mC]*eA*e[5mC]) [compound 422201]
% Inhibition of human Factor 7 mRNA levels (human Factor 7 mRNA [1]; [5]): 71%

416460 (antisense e[5mC]*eA*e[5mC]*e[5mC]*eA*d[5mC]*dA*dT*dG*dG*dT*d[5mC]*dA*dG*dT*eG*eA*eG*eG*eA) [compound 416460]
% Inhibition of human Factor 7 mRNA levels (human Factor 7 mRNA [1]; [4]): 49%

407940 (antisense eT*eG*eT*eG*eA*dA*dG*d[5mC]*dT*dG*dG*dG*dA*dA*dG*e[5mC]*eA*eG*eG*eT) [compound 407940]
% Inhibition (human Factor 7 mRNA) (human Factor 7 mRNA [1]; [3]): 62%

422106 (antisense e[5mC]*eT*eG*eG*e[5mC]*dT*dG*dA*dG*dG*dA*dG*dA*d[5mC]*dA*eA*eT*eG*eG*eT) [compound 422106]
% Inhibition of human Factor 7 mRNA levels (human Factor 7 mRNA [1]; [6]): 32%

422281 (antisense eG*e[5mC]*dA*dG*d[5mC]*d[5mC]*dT*dG*dA*dG*dG*d[5mC]*d[5mC]*dA*dG*e[5mC]*eA*eG*eA*eT) [compound 422281]
% Inhibition of human Factor 7 mRNA levels (human Factor 7 mRNA [1]; [5]): 57%

422244 (antisense eG*eA*dG*dG*dA*dG*dA*d[5mC]*dA*dA*dT*dG*dG*dT*d[5mC]*eA*eG*eG*eG*e[5mC]) [compound 422244]
% Inhibition of human Factor 7 mRNA levels (human Factor 7 mRNA [1]; [6]): 55%

422277 (antisense e[5mC]*e[5mC]*dT*dG*dA*dG*dG*d[5mC]*d[5mC]*dA*dG*d[5mC]*dA*dG*dA*eT*e[5mC]*eA*e[5mC]*eG) [compound 422277]
% Inhibition of human Factor 7 mRNA levels (human Factor 7 mRNA [1]; [5]): 56%

422121 (antisense eG*e[5mC]*eG*e[5mC]*eG*dG*dA*dA*dG*dA*dA*dG*dG*dG*dA*e[5mC]*eG*eG*eA*eA) [compound 422121]
% Inhibition (human Factor 7 mRNA) (human Factor 7 mRNA [1]; Example 4, lipofectin, relative to untreated control): 43%
